Patent US20230274811A1, “METHODS OF MAKING PROSTATE CANCER TREATMENT DECISIONS” (Progenics Pharmaceuticals, Inc., priority 2020, published 2023)
“And” between values parts separate entries of the source, which are not always exact repeats. Identical values can stand only once. “Also recorded” adds a separate entry of the source. Like-named read-outs stand apart in the source and are kept apart here.

Columns and labels:
[1] = test system: PSMA-positive PC3 PIP tumor; test: Uptake in mouse xenografts; type: in vivo; conditions: PSMA-positive PC3 PIP vs PSMA-negative PC3 flu tumors
[2] = test system: PCa recurrence or metastases; test: OSPREY Cohort B sub-analysis: staging changes vs conventional imaging; type: in vivo, men
Experimental: Methods ^18F-DCFPyL-PET/CT was evaluated in 117 men with radiologic evidence of local recurrence or metastatic disease on baseline anatomical imaging (CT, MRI) or whole-body bone scintigraphy and in whom at least one lesion was deemed amenable to biopsy. […] Based on TNM staging: prostatic (T), pelvic LN (N), extra-pelvic LN (M1a), bone (M1b) and other visceral organs/soft tissue (M1c), ^18F-DCFPyL-PET/CT detection rates including lesion counts were systematically analyzed. Three central, blinded, and independent readers evaluated the ^18F-DCFPyL scans.

[3] = CONDOR safety (adverse events); type: in vivo, men
Text: Pre- and post-treatment assessments also included vital signs and concomitant medications/procedures.

[4] = test system: pelvic lymph node metastases; test: OSPREY Cohort A: 18F-DCFPyL PET/CT detection of pelvic lymph node metastases vs histopathology; type: in vivo, men; conditions: for NPV % (95% CI) / PPV % (95% CI) / Sensitivity % (95% CI) / Specificity % (95% CI): N=252
Text: Histopathology served as the reference standard to which imaging findings were compared. FIG. 1 provides information regarding the study design and cohorts.
Imaging findings were compared to histopathology as the truth standard.
In OSPREY, 268 patients at high risk for pelvic lymph node metastasis who were planned for initial definitive therapy underwent PyLARIFY imaging. […] PyLARIFY and baseline conventional imaging reader interpretations were compared to pathologic staging of pelvic nodal metastases.

[5] = test system: primary tumor in the gland; test: OSPREY Cohort A: 18F-DCFPyL PET/CT detection of primary tumor in the prostate gland vs surgical pathology; type: in vivo, men
Text: Sensitivity, specificity, PPV and NPV of ^18F-DCFPyL PET/CT for detecting primary tumor in the gland and pelvic lymph node metastases were compared to conventional imaging (CI), either CT or MRI. Three central, blinded, and independent readers evaluated the ^18F-DCFPyL scans and one blinded central reader interpreted the CI. Imaging results were compared to surgical pathology as the truth standard.

[6] = OSPREY safety (adverse events); type: in vivo, men
Experimental: The coprimary endpoints of sensitivity and specificity of ^18F-DCFPyL PET/CT for detecting pelvic lymph node metastases were evaluated in Cohort A. Secondary endpoints included safety in both cohorts, positive predictive value (PPV) and negative predictive value (NPV) in Cohort A, and sensitivity and PPV in Cohort B. Three central, blinded, and independent readers evaluated the ^18F-DCFPyL scans. Histopathology served as the reference standard to which imaging findings were compared. FIG. 1 provides information regarding the study design and cohorts.
Co-primary endpoints of specificity and sensitivity of ^18F-DCFPyL PET/CT for detecting prostate cancer metastases in pelvic lymph nodes were evaluated in Cohort A. Key secondary endpoints included incidence of adverse events, positive predictive value (PPV) and negative predictive value (NPV) of ^18F-DCFPyL PET/CT imaging to detect pelvic lymph node metastases in Cohort A, sensitivity and PPV of ^18F-DCFPyL PET/CT imaging to detect prostate cancer within sites of metastasis or recurrence in Cohort B. Three central, blinded, and independent readers evaluated the ^18F-DCFPyL scans. Imaging findings were compared to histopathology as the truth standard.
Pts underwent image-guided biopsy.

Structure (SMILES): O=C(O)CC[C@H](NC(=O)N[C@@H](CCCCNC(=O)c1ccc([18F])nc1)C(=O)O)C(=O)O [18F-DCFPyL, 2-(3-{1-carboxy-5-[(6-[^18F]fluoro-pyridine-3-carbonyl)-amino]-pentyl}ureido)-pentanedioic acid]
- uptake in mouse xenografts [1]: taken up only in PSMA-positive PC3 PIP tumor and not in PSMA-negative PC3 flu tumors
- up-staged pts with extra-pelvic biopsy confirmed M1 by pathology ([2]; 10/11): 91%
- baseline M1 pts upstaged to a higher M1 sub-stage ([2]; 10/64): 16%
- baseline M1 pts down-staged to M0 ([2]; 18/82): 22%
- pts up-staged from M0 to M1 ([2]; 19/33 M0 at baseline by conventional imaging): 58%
- patients experiencing AEs ([3]; 14 patients, 21 AEs): 6.7%
- drug-related serious adverse event ([3]; 208 men): A single serious adverse event (AE) was reported as related to study drug (hypersensitivity); also recorded: hypersensitivity was the single drug-related Grade 3 AE
- fatigue, AE incidence ([3]; 208 men): 1.0%
- headache, AE incidence ([3]; 208 men): 1.9%
- hypertension, AE incidence ([3]; 208 men): 1.0%
- drug-related serious adverse event ([3]; 208 men, listed as PyL): one drug-related SAE (hypersensitivity)
- tolerability ([3]; CONDOR): well tolerated
- Grade 4 AEs, deaths, AEs leading to discontinuation ([3]; in vivo): There were no Grade 4 AEs, nor were there deaths or AEs that led to discontinuation of the study
- changes in vital signs pre- to post-dosing ([3]; in vivo): No clinically relevant changes in vital signs were observed
- patients with Grade 3, serious AEs (hypersensitivity, headache, paresthesia) ([3]; one patient): 0.5%
- AEs in case studies 1-3 ([3]; single patients): No AEs were reported
- NPV, range among three readers ([4]; Cohort A, n=252 evaluable): 81.4-83.8% and 81-84%
- PPV, range among three readers ([4]; Cohort A, n=252 evaluable): 78.1-90.5% and 78-91%
- Sensitivity, range among three readers ([4]; Cohort A, n=252 evaluable): 30.6-41.9% and 31-42%
- Specificity, range among three readers ([4]; Cohort A, n=252 evaluable): 96.3-98.9% and 96-99%
- Sensitivity, range among three readers ([4]; Cohort A, restricted to median lymph node metastases >4 mm): 51.7-65.5%
- NPV % (95% CI) ([4]; Reader 1): 84 (80, 89) %
- PPV % (95% CI) ([4]; Reader 1): 87 (70, 95) %
- Sensitivity % (95% CI) ([4]; Reader 1): 42 (30, 54) %
- Specificity % (95% CI) ([4]; Reader 1): 98 (95, 99) %
- NPV % (95% CI) ([4]; Reader 2): 81 (76, 86) %
- PPV % (95% CI) ([4]; Reader 2): 91 (70, 99) %
- Sensitivity % (95% CI) ([4]; Reader 2): 31 (19, 42) %
- Specificity % (95% CI) ([4]; Reader 2): 99 (96, 100) %
- NPV % (95% CI) ([4]; Reader 3): 83 (78, 87) %
- PPV % (95% CI) ([4]; Reader 3): 78 (64, 93) %
- Sensitivity % (95% CI) ([4]; Reader 3): 40 (28, 53) %
- Specificity % (95% CI) ([4]; Reader 3): 96 (94, 99) %
- PPV, median of 3 readers [5]: 100% (0.98, 1.0)
- Sensitivity, median of 3 readers [5]: 98.0% (0.96, 1.0)
- Sensitivity, median of 3 readers ([5]; listed as PyL): 98%
- drug-related serious adverse events ([6]; 385 men, both cohorts): No drug-related serious adverse events were observed
- dysgeusia, drug-related AE incidence ([6]; 385 men, both cohorts): 2.1%
- headache, drug-related AE incidence ([6]; 385 men, both cohorts): 2.1%
- men with ≥1 drug-related adverse event ([6]; 385 men, both cohorts): 7.0%
- severity of drug-related AEs (dysgeusia and generalized rash) ([6]; Cohort B): mild (Grade 1)
- pts with ≥1 drug-related AE ([6]; Cohort B, 117 men): 1.7%
- tolerability ([6]; OSPREY): generally well tolerated
